ChEMBL document CHEMBL1909046, “DrugMatrix in vitro pharmacology data”

Columns and labels:
Interstitial collagenase = target: T1, Interstitial collagenase (Homo sapiens, UniProt P03956); assay: biochemical; format: tissue-based, Rheumatoid synovial fibroblasts;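 also: MMP-1 enzyme inhibition assay using a peptide substrate; in other assays of this panel Not Active means under 50% inhibition at 10 µM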
T1 sequence (P03956 whole entry): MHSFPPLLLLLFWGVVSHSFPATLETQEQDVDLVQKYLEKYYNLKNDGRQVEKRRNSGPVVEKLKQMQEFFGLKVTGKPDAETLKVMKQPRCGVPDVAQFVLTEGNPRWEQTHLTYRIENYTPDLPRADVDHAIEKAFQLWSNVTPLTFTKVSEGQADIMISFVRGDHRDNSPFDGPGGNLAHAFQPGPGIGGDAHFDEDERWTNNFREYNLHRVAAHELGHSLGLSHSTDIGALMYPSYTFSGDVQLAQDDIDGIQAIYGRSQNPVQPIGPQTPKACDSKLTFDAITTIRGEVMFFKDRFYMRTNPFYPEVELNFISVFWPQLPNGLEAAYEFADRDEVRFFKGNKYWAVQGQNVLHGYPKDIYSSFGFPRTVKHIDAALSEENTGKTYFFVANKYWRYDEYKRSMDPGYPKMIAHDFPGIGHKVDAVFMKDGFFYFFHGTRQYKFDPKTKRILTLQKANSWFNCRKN

[1] = target: Delta-type opioid receptor (Homo sapiens, UniProt P41143); format: cell membranes, HEK293, Membrane; settings: hek293; also: in other assays of this panel Not Active means under 50% inhibition at 10 µM
[2] = target: Beta-2 adrenergic receptor (Homo sapiens, UniProt P07550); assay: DRUGMATRIX: Adrenergic beta2 radioligand binding (ligand: [3H] CGP-12177); format: cell membranes, CHO, Membrane; settings: cho; Not Active = under 50% inhibition at 10 µM
[3] = target: T2, Nitric oxide synthase, inducible (Mus musculus, UniProt P29477); design: species or system Escherichia coli;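 also: inhibition of iNOS enzyme activity measured with L-arginine as substrate; in other assays of this panel Not Active means under 50% inhibition at 10 µM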
T2 sequence (P29477 whole entry): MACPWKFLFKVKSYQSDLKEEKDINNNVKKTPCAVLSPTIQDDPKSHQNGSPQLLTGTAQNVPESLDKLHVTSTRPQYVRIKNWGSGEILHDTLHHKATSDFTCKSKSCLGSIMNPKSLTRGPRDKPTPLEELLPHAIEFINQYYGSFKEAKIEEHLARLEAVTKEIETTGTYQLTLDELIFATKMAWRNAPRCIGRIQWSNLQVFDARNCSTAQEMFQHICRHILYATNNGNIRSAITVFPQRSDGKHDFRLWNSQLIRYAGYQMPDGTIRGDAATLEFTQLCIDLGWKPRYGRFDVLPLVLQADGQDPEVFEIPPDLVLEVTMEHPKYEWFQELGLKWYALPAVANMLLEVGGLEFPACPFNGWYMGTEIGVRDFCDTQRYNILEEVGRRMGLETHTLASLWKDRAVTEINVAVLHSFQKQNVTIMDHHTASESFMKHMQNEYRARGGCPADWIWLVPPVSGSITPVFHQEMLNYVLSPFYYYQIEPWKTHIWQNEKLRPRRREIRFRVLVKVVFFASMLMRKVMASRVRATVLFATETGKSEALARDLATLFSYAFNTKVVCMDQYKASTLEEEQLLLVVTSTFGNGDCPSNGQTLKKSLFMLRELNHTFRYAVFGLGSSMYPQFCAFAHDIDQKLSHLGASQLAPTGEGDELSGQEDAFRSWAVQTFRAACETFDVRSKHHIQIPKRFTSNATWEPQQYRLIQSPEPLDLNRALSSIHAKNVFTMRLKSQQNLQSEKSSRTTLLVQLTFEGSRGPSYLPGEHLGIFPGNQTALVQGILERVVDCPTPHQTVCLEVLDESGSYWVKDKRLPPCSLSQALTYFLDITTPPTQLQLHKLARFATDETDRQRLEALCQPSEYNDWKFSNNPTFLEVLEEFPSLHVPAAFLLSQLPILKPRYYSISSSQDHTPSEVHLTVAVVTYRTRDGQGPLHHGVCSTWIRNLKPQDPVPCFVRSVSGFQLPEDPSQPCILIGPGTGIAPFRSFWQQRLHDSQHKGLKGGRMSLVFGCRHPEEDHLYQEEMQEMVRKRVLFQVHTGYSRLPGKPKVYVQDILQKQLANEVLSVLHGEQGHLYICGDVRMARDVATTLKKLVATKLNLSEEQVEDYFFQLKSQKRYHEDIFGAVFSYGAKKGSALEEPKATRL

Melanocortin receptor 3 = Melanocortin receptor 3 (Homo sapiens, UniProt P41968); format: cell membranes, HEK293, Membrane; settings: hek293; also: in other assays of this panel Not Active means under 50% inhibition at 10 µM
Cytochrome P450 2C19 = Cytochrome P450 2C19 (Homo sapiens, UniProt P33261); settings: bti-tn-5b1-4; also: in other assays of this panel Not Active means under 50% inhibition at 10 µM
[4] = DRUGMATRIX: Sigma2 radioligand binding (ligand: [3H] Ifenprodil); format: cell membranes, Rattus norvegicus, Wistar, Brain, Membrane; settings: Not Active = under 50% inhibition at 10 µM

Chain of Melanocortin receptor 3 (P41968 whole entry): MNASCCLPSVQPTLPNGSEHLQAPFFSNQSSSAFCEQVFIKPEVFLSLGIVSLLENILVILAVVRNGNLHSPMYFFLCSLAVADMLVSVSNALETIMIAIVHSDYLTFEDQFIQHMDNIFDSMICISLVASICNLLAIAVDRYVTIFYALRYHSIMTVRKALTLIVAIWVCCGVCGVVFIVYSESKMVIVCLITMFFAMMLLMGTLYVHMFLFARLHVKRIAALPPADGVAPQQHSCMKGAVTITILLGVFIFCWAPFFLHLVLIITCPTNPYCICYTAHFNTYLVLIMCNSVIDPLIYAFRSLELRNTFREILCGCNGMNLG
Chain of Cytochrome P450 2C19 (P33261 whole entry): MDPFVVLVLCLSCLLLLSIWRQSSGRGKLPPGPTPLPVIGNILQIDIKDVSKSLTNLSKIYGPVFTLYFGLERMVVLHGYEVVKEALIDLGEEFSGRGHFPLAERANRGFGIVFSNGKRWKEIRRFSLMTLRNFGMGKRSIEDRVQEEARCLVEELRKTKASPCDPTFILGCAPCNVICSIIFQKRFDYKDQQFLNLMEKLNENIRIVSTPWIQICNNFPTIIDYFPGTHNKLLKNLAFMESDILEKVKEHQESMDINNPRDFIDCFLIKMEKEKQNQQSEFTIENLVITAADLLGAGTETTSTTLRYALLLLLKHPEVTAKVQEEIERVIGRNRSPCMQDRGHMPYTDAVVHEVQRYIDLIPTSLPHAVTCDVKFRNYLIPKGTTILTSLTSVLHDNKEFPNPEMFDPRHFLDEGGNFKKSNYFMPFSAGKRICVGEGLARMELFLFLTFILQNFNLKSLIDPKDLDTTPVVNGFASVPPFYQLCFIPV
Chain of Delta-type opioid receptor (P41143 whole entry): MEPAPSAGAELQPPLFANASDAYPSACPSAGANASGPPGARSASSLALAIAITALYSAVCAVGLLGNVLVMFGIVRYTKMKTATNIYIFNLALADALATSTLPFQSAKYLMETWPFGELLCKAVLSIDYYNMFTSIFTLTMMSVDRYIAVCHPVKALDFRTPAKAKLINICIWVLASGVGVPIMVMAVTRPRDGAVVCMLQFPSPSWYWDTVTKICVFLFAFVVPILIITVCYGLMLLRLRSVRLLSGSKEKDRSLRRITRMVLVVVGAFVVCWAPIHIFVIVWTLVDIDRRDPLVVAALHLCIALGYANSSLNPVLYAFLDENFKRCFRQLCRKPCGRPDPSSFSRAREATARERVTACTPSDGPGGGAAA

Oc1ccccc1 [PHENOL]
Not Active: IC50 (Interstitial collagenase) | IC50 [1] | IC50 [2] | IC50 [3] | IC50 (Melanocortin receptor 3) | IC50 (Cytochrome P450 2C19) | Ki (Cytochrome P450 2C19) | IC50 [4] | Ki [4]

Nc1nc(F)nc2c1ncn2[C@@H]1O[C@H](CO)[C@@H](O)[C@@H]1O [FLUDARABINE]
Not Active: IC50 (Interstitial collagenase) | IC50 [1] | IC50 [2] | IC50 [3] | IC50 (Melanocortin receptor 3) | IC50 (Cytochrome P450 2C19) | Ki (Cytochrome P450 2C19) | IC50 [4] | Ki [4]

c1ccc(Cn2ccnc2)cc1
Not Active: IC50 (Interstitial collagenase) | IC50 [1] | IC50 [2] | IC50 [3] | IC50 (Melanocortin receptor 3) | IC50 (Cytochrome P450 2C19) | Ki (Cytochrome P450 2C19) | IC50 [4] | Ki [4]

Nc1nc(N)c2nc(CNc3ccc(C(=O)N[C@@H](CCC(=O)O)C(=O)O)cc3)cnc2n1 [AMINOPTERIN]
Not Active: IC50 (Interstitial collagenase) | IC50 [1] | IC50 [2] | IC50 [3] | IC50 (Melanocortin receptor 3) | IC50 (Cytochrome P450 2C19) | Ki (Cytochrome P450 2C19) | IC50 [4] | Ki [4]

C=C(Cl)Cl [1,1-DICHLOROETHENE]
Not Active: IC50 (Interstitial collagenase) | IC50 [1] | IC50 [2] | IC50 [3] | IC50 (Melanocortin receptor 3) | IC50 (Cytochrome P450 2C19) | Ki (Cytochrome P450 2C19) | IC50 [4] | Ki [4]

Oc1ncnc2[nH]ncc12 [ALLOPURINOL]
Not Active: IC50 (Interstitial collagenase) | IC50 [1] | IC50 [2] | IC50 [3] | IC50 (Melanocortin receptor 3) | IC50 (Cytochrome P450 2C19) | Ki (Cytochrome P450 2C19) | IC50 [4] | Ki [4]

O=C(O)CCc1nc(-c2ccccc2)c(-c2ccccc2)o1 [OXAPROZIN]
Not Active: IC50 (Interstitial collagenase) | IC50 [1] | IC50 [2] | IC50 [3] | IC50 (Melanocortin receptor 3) | IC50 (Cytochrome P450 2C19) | Ki (Cytochrome P450 2C19) | IC50 [4] | Ki [4]

ClC1=C(Cl)[C@]2(Cl)[C@@H]3[C@@H]4C[C@@H]([C@H]5O[C@@H]45)[C@@H]3[C@@]1(Cl)C2(Cl)Cl [DIELDRIN]
Not Active: IC50 (Interstitial collagenase) | IC50 [1] | IC50 [2] | IC50 [3] | IC50 (Melanocortin receptor 3) | IC50 (Cytochrome P450 2C19) | Ki (Cytochrome P450 2C19) | IC50 [4] | Ki [4]

OC[C@H]1O[C@@H]2O[C@H]3[C@H](O)[C@@H](O)[C@@H](O[C@H]4[C@H](O)[C@@H](O)[C@@H](O[C@H]5[C@H](O)[C@@H](O)[C@@H](O[C@H]6[C@H](O)[C@@H](O)[C@@H](O[C@H]7[C@H](O)[C@@H](O)[C@@H](O[C@H]8[C@H](O)[C@@H](O)[C@@H](O[C@H]1[C@H](O)[C@H]2O)O[C@@H]8CO)O[C@@H]7CO)O[C@@H]6CO)O[C@@H]5CO)O[C@@H]4CO)O[C@@H]3CO [BETADEX]
Not Active: IC50 (Interstitial collagenase) | IC50 [1] | IC50 [2] | IC50 [3] | IC50 (Melanocortin receptor 3) | IC50 (Cytochrome P450 2C19) | Ki (Cytochrome P450 2C19) | IC50 [4] | Ki [4]

COc1ccc(Cl)cc1C(=O)NCCc1ccc(S(=O)(=O)NC(=O)NC2CCCCC2)cc1 [GLYBURIDE]
Not Active: IC50 (Interstitial collagenase) | IC50 [1] | IC50 [2] | IC50 [3] | IC50 (Melanocortin receptor 3) | IC50 (Cytochrome P450 2C19) | Ki (Cytochrome P450 2C19) | IC50 [4] | Ki [4]

COC(=O)Nc1nc2ccc(Sc3ccccc3)cc2[nH]1 [FENBENDAZOLE]
Not Active: IC50 (Interstitial collagenase) | IC50 [1] | IC50 [2] | IC50 [3] | IC50 (Melanocortin receptor 3) | IC50 (Cytochrome P450 2C19) | Ki (Cytochrome P450 2C19) | IC50 [4] | Ki [4]

C=CCO [ALLYL ALCOHOL]
Not Active: IC50 (Interstitial collagenase) | IC50 [1] | IC50 [2] | IC50 [3] | IC50 (Melanocortin receptor 3) | IC50 (Cytochrome P450 2C19) | Ki (Cytochrome P450 2C19) | IC50 [4] | Ki [4]

CARBOXYMETHYLCELLULOSE
Not Active: IC50 (Interstitial collagenase) | Ki (Interstitial collagenase) | IC50 [1] | Ki [1] | IC50 [2] | Ki [2] | IC50 [3] | Ki [3] | IC50 (Melanocortin receptor 3) | Ki (Melanocortin receptor 3) | IC50 (Cytochrome P450 2C19) | Ki (Cytochrome P450 2C19) | IC50 [4] | Ki [4]

Cc1ccnc2c1NC(=O)c1cccnc1N2C1CC1 [NEVIRAPINE]
Not Active: IC50 (Interstitial collagenase) | IC50 [1] | IC50 [2] | IC50 [3] | IC50 (Melanocortin receptor 3) | IC50 (Cytochrome P450 2C19) | Ki (Cytochrome P450 2C19) | IC50 [4] | Ki [4]

NCC(CC(=O)O)c1ccc(Cl)cc1 (centres undefined) [BACLOFEN]
Not Active: IC50 (Interstitial collagenase) | IC50 [1] | IC50 [2] | IC50 [3] | IC50 (Melanocortin receptor 3) | IC50 (Cytochrome P450 2C19) | Ki (Cytochrome P450 2C19) | IC50 [4] | Ki [4]

CO[C@H]1O[C@@H]2O[C@@]3(C)CC[C@H]4[C@H](C)CC[C@@H]([C@H]1C)[C@@]24OO3
Not Active: IC50 (Interstitial collagenase) | IC50 [1] | IC50 [2] | IC50 [3] | IC50 (Melanocortin receptor 3) | IC50 (Cytochrome P450 2C19) | Ki (Cytochrome P450 2C19) | IC50 [4] | Ki [4]
